Assay type in all cases: biochemical
One assay concerns the target T1, Aurora A (Homo sapiens, UniProt O14965).
T1 construct: purchased
T1 sequence (O14965 1-403): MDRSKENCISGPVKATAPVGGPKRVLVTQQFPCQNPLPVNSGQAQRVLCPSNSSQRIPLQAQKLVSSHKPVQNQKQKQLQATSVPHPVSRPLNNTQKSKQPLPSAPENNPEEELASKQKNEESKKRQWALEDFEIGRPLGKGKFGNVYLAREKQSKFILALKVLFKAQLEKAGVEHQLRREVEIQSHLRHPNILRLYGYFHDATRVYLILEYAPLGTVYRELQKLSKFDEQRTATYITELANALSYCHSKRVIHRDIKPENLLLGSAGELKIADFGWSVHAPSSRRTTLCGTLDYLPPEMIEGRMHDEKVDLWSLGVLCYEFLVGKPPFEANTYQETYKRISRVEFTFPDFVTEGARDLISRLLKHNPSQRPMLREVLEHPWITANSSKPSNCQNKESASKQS
Briefly: Inhibitory activity to Aurora A (FRET). The conditions noted are these: read-out: Aurora A inhibition % (1 × 10^−6 mol/L). The method, boiled down: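 FRET kinase assay of Aurora A with peptide substrate in HEPES pH 7.5, BRIJ-35, MgCl2, EDTA; 1 h reaction, then 1 h development before stop. Ex 400 nm, emission 445 nm (coumarin) and 520 nm (fluorescein); 0% and 100% phosphorylation controls set inhibition scale.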

Another assay deals with CDK3/cyclin E (Homo sapiens, UniProt Q00526). Briefly: Kinase IC50, 33P labeled isotope method.
CDK3/cyclin E, sequence (Q00526 4-286 limits assumed): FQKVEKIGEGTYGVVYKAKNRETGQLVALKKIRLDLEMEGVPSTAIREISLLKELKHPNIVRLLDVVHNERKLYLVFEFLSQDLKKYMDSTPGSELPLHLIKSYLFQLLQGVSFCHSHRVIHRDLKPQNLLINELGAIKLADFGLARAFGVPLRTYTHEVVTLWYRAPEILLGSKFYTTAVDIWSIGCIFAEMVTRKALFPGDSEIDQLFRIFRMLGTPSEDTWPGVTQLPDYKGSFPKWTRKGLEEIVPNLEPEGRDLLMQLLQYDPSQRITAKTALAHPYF
CDK3/cyclin E, sequence (P24864 whole entry partner): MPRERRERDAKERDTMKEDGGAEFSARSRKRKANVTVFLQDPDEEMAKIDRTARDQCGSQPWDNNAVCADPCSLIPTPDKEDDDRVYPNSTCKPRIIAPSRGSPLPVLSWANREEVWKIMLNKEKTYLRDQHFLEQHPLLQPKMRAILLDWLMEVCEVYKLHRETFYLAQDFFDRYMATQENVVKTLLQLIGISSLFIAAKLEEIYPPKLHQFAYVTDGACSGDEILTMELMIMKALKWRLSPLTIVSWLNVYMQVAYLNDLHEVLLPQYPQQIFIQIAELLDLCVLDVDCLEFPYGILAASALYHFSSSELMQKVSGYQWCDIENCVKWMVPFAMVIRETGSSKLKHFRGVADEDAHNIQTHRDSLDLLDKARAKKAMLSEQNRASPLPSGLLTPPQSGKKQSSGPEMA
The next assay concerns the target T2, ERK7/MAPK15 (Homo sapiens, UniProt Q8TD08).
T2 sequence (Q8TD08 13-304 limits assumed): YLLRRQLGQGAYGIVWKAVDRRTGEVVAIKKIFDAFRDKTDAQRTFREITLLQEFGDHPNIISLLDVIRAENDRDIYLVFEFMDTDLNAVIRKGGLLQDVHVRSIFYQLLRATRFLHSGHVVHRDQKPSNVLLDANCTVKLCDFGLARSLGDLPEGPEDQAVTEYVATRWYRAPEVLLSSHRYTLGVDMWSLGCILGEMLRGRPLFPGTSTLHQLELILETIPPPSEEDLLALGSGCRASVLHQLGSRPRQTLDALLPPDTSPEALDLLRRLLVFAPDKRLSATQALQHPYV
Put plainly: Kinase IC50, 33P labeled isotope method.

The target in another assay is JNK2 (Homo sapiens, UniProt P45984). Put plainly: Kinase IC50, 33P labeled isotope method.
For a further assay, the target named is CDK1/cyclin A (Homo sapiens, UniProt P06493). Briefly: Kinase IC50, 33P labeled isotope method.
The next assay concerns the target CDK7/cyclin H (Homo sapiens, UniProt P50613). Put plainly: Kinase IC50, 33P labeled isotope method.
A further assay has as its target JAK2 (Homo sapiens, UniProt O60674). Put plainly: Kinase IC50, 33P labeled isotope method.
A further assay deals with FGFR1 (Homo sapiens, UniProt P11362). Briefly: Kinase IC50, 33P labeled isotope method.
The target in the next assay is CDK2/cyclin A (Homo sapiens, UniProt P24941). Briefly: Kinase IC50, 33P labeled isotope method.
In a further assay the target is KDR/VEGFR2 (Homo sapiens, UniProt P35968). Briefly: Kinase IC50, 33P labeled isotope method.
KDR/VEGFR2, sequence (P35968 834-1162 limits assumed): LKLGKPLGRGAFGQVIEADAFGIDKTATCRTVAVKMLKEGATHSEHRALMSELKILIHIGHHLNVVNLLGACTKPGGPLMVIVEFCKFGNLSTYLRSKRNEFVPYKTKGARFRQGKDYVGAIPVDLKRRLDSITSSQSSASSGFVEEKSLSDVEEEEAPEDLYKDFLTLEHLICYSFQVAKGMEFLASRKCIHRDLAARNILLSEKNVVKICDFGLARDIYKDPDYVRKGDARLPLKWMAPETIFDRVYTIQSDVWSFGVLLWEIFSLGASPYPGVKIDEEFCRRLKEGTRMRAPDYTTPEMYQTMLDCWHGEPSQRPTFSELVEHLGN
The target in the next assay is CDK2/Cyclin A1 (Homo sapiens, UniProt P24941). Briefly: Kinase IC50, 33P labeled isotope method.
Another assay deals with T3, FLT1/VEGFR1 (Homo sapiens, UniProt P17948).
T3 sequence (P17948 827-1158 limits assumed): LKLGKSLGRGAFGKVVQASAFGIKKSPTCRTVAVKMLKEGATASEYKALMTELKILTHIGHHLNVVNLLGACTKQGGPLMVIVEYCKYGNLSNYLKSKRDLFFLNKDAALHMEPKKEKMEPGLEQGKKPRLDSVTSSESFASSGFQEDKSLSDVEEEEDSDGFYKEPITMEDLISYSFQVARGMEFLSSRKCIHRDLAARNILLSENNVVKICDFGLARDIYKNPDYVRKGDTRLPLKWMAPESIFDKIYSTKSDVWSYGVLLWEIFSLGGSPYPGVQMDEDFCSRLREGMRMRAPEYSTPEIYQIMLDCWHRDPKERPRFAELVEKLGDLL
Put plainly: Kinase IC50, 33P labeled isotope method.

The next assay has as its target T4, CDK2/A (Homo sapiens, UniProt P24941).
T4 construct: purchased
Briefly: Inhibitory activity to CDK2 (FRET). Conditions: read-out: CDK2 inhibition % (1 × 10^−6 mol/L). In a few lines: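 FRET-based kinase assay using CDK2/cyclin A with peptide substrate in HEPES pH 7.5 buffer (MgCl2, BRIJ-35, EDTA). The kinase reaction ran 1 h, followed by development reagent for 1 h and a stop step. Inhibition calculated relative to phospho-peptide (100%) and ATP-free (0%) phosphorylation controls.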

The target in another assay is CDK4/cyclin D1 (Homo sapiens, UniProt P11802). Briefly: Kinase IC50, 33P labeled isotope method.
CDK4/cyclin D1, sequence (P11802 6-295 limits assumed): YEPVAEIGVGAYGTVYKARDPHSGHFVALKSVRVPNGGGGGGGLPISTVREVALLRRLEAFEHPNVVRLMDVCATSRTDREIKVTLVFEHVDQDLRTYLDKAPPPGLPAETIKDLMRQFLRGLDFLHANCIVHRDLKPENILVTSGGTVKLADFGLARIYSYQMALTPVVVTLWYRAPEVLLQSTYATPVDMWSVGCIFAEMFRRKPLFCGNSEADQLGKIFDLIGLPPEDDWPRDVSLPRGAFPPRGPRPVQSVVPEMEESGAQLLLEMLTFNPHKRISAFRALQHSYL
CDK4/cyclin D1, sequence (P24385 whole entry partner): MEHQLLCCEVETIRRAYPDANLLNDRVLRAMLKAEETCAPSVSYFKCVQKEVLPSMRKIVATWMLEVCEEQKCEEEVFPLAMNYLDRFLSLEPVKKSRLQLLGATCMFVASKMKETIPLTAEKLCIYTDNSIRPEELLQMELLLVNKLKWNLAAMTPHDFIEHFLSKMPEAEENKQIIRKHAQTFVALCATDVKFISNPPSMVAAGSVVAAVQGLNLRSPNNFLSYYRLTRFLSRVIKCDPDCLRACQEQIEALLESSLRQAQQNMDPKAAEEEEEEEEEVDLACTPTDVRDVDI
The target in a further assay is FGFR2 (Homo sapiens, UniProt P21802). Briefly: Kinase IC50, 33P labeled isotope method.
FGFR2, sequence (P21802 481-770 limits assumed): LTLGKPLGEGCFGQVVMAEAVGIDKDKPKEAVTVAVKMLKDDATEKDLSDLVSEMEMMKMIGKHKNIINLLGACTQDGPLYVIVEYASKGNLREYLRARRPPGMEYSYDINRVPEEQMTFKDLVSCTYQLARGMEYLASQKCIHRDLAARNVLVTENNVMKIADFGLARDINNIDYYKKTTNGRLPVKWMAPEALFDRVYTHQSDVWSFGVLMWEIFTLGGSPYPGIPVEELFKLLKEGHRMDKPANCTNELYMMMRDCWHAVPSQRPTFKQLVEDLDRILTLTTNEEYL
Another assay deals with JNK1 (Homo sapiens, UniProt P45983). Briefly: Kinase IC50, 33P labeled isotope method.
JNK1, sequence (P45983 26-321 limits assumed): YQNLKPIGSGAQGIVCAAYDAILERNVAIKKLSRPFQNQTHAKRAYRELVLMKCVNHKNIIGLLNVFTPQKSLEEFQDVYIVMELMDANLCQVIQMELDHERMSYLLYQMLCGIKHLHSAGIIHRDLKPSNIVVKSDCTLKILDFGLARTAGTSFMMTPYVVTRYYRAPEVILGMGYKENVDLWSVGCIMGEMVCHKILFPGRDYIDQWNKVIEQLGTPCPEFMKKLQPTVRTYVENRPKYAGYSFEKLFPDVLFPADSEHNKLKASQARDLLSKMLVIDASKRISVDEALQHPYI
The target in the next assay is FGFR3 (Homo sapiens, UniProt P22607). Put plainly: Kinase IC50, 33P labeled isotope method. Conditions: 20 μM ATP.
FGFR3, sequence (P22607 472-761 limits assumed): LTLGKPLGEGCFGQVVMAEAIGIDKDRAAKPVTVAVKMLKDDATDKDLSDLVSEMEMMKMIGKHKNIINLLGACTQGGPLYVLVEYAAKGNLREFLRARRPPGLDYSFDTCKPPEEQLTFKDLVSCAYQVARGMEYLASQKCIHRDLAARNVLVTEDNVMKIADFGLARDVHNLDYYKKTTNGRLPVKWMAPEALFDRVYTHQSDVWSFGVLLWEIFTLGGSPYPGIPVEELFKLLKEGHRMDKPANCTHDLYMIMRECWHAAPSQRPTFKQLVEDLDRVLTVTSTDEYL
The target of the next assay is CDK5/p35 (Homo sapiens, UniProt Q00535). Put plainly: Kinase IC50, 33P labeled isotope method.
CDK5/p35, sequence (Q00535 4-286 limits assumed): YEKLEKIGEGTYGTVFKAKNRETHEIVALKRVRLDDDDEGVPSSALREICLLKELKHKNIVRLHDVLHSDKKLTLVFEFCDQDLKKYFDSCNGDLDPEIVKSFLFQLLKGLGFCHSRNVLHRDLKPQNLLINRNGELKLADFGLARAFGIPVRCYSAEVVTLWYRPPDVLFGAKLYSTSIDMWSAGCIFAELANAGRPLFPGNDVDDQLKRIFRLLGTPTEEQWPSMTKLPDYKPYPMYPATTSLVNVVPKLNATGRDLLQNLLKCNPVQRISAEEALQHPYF
CDK5/p35, sequence (Q15078 whole entry partner): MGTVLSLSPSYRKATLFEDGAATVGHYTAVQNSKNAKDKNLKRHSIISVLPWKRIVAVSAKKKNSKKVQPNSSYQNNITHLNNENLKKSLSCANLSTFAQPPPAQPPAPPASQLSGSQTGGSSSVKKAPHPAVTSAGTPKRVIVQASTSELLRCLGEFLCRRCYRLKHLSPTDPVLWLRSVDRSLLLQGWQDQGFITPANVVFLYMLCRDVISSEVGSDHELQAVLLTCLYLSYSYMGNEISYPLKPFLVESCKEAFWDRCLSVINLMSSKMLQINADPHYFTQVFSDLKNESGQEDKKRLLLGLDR
The next assay has as its target CDK1/cyclin B (Homo sapiens, UniProt P06493). Put plainly: Kinase IC50, 33P labeled isotope method.
Another assay deals with CDK1/cyclin E (Homo sapiens, UniProt P06493). Briefly: Kinase IC50, 33P labeled isotope method.
CDK1/cyclin E, sequence (P06493 4-287 limits assumed): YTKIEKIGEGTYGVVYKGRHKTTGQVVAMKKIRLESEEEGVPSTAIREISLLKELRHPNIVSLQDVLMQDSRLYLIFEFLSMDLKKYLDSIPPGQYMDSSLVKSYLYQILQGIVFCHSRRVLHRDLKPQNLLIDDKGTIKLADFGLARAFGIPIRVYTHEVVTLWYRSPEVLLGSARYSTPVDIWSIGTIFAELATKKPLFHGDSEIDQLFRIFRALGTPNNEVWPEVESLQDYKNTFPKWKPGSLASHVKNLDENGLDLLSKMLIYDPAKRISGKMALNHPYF
CDK1/cyclin E, sequence (P24864 whole entry partner): as the sequence (P24864 whole entry partner) above
Setting [1] is: 20 μM ATP, read-out: IC50* CDK3/cyclin E.
Where [2] appears, read: 20 μM ATP, read-out: IC50* ERK7/MAPK15.
Setting [3] is: 20 μM ATP, read-out: IC50* JNK2.
The mark [4] stands for this setting: 20 μM ATP, read-out: IC50* CDK1/cyclin A.
Setting [5] is: 20 μM ATP, read-out: IC50* CDK7/cyclin H.
The mark [6] stands for this setting: 20 μM ATP, read-out: IC50* JAK2.
Where [7] appears, read: 20 μM ATP, read-out: IC50* FGFR1.
Setting [8] is: 20 μM ATP, read-out: IC50* CDK2/cyclin A.
The mark [9] stands for this setting: 20 μM ATP, read-out: IC50* KDR/VEGFR2.
Setting [10] is: 20 μM ATP, read-out: IC50* CDK2/Cyclin A1.
Where [11] appears, read: 20 μM ATP, read-out: IC50* FLT1/VEGFR1.
Setting [12] is: 20 μM ATP, read-out: IC50* CDK4/cyclin D1.
The mark [13] stands for this setting: 20 μM ATP, read-out: IC50* FGFR2.
[14] abbreviates: 20 μM ATP, read-out: IC50* JNK1.
Setting [15] is: 20 μM ATP, read-out: IC50* CDK5/p35.
Where [16] appears, read: 20 μM ATP, read-out: IC50* CDK1/cyclin B.
[17] abbreviates: 20 μM ATP, read-out: IC50* CDK1/cyclin E.

This is an account of results in patent publication US9550792B2, “Polycyclic substituted pyrazole kinase activity inhibitors and use thereof” (priority 2013, dated 2017).

Structures are written as SMILES. Like-named read-outs stand apart in the source and are kept apart here.

CDK7/cyclin H, sequence (P50613 12-295 limits assumed): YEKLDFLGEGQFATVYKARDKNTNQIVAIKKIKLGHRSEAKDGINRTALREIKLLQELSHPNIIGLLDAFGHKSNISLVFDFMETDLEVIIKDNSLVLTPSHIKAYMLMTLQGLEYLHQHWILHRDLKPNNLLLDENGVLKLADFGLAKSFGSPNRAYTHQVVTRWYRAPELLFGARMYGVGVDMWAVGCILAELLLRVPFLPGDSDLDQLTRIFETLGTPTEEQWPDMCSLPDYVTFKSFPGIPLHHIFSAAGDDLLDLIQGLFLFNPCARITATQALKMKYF
CDK7/cyclin H, sequence (P51946 whole entry partner): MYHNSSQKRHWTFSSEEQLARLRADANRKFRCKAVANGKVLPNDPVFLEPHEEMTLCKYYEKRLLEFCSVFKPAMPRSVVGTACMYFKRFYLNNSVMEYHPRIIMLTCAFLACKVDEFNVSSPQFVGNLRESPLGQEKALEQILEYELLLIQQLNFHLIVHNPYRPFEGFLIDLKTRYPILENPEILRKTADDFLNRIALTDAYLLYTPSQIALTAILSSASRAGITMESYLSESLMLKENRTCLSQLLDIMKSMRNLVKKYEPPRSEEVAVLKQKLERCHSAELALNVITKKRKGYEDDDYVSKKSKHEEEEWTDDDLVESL
CDK7/cyclin H, sequence (P51948 whole entry partner): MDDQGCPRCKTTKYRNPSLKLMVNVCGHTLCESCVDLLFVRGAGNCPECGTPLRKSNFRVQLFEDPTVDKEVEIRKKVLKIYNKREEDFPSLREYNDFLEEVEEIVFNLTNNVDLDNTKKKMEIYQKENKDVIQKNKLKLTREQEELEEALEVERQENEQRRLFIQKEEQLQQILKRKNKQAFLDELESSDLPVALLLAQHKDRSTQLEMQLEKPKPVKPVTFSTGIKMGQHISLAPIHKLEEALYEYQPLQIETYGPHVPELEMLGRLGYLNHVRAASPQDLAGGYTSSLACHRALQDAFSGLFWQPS
JAK2, sequence (O60674 849-1124 limits assumed): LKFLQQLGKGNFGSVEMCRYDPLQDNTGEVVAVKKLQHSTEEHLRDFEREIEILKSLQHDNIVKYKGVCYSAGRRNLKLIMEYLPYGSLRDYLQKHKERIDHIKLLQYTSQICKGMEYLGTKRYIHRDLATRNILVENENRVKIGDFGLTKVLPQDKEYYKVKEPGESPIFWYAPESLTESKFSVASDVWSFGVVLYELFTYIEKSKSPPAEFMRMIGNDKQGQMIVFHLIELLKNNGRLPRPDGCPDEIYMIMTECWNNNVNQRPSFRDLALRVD

Consider `Cc1cc2c(Nc3c[nH]nc3C(=O)Nc3ccc(CN4CCN(C)CC4)cc3)ncnc2s1` [Compound I-3, 4-(4-(6-methylthieno[2,3-d]pyrimidinyl)amino)-N-(4-((4-methyl-1-piperazinyl)methyl)phenyl)-1H-3-pyrazolecarboxamide], for which the values for the inhibition at 1 µM on Aurora A and at CDK2/A were 75.2% and 62.5%, respectively. Moreover, the IC50 at CDK3/cyclin E (setting [1]) came to 171 nM; on ERK7/MAPK15 (setting [2]) it was 7 nM; on JNK2 (setting [3]), 1170 nM; at CDK1/cyclin A (setting [4]) it was 142 nM; on CDK7/cyclin H (setting [5]), 495 nM; on JAK2 (setting [6]) it was 716 nM. The IC50 is 274 nM on FGFR1 (setting [7]); 14 nM on CDK2/cyclin A (setting [8]); 33 nM on KDR/VEGFR2 (setting [9]); 9 nM at CDK2/Cyclin A1 (setting [10]); 19 nM at FLT1/VEGFR1 (setting [11]); 6 nM at CDK4/cyclin D1 (setting [12]). Moreover, the IC50 at FGFR2 (setting [13]) came to 210 nM; at JNK1 (setting [14]) it was 1130 nM; against FGFR3 it was 723 nM; at CDK5/p35 (setting [15]), 13 nM; at CDK1/cyclin B (setting [16]), 79 nM; on CDK1/cyclin E (setting [17]) it was 87 nM.
Regarding `Cc1cc2c(Nc3c[nH]nc3C(=O)Nc3ccc(CN4CCN(C)CC4)cc3)nccc2s1` [Compound I-27, 4-(4-(2-methylthieno[3,2-c]pyridyl)amino)-N-(4-((4-methyl-1-piperazinyl)methyl)phenyl)-1H-3-pyrazolecarboxamide], the results for the inhibition at 1 µM on Aurora A and at CDK2/A were 67.8% and 72.6%, respectively. In addition, the IC50 at CDK3/cyclin E (setting [1]) was 198 nM; on ERK7/MAPK15 (setting [2]) it was 8 nM; at JNK2 (setting [3]) it was 1380 nM; on CDK1/cyclin A (setting [4]), 164 nM; at CDK7/cyclin H (setting [5]) it was 575 nM; at JAK2 (setting [6]), 826 nM. The IC50 came out at 316 nM on FGFR1 (setting [7]); 16 nM at CDK2/cyclin A (setting [8]); 38 nM at KDR/VEGFR2 (setting [9]); 10 nM on CDK2/Cyclin A1 (setting [10]); 22 nM at FLT1/VEGFR1 (setting [11]); 7 nM at CDK4/cyclin D1 (setting [12]). The IC50 was determined as 242 nM at FGFR2 (setting [13]); 1330 nM on JNK1 (setting [14]); 841 nM against FGFR3; 15 nM at CDK5/p35 (setting [15]); 91 nM on CDK1/cyclin B (setting [16]); 100 nM at CDK1/cyclin E (setting [17]).
Turning to `Cc1cc2c(Nc3c[nH]nc3C(=O)Nc3ccc(CN4CCN(C)CC4)cc3)ncnc2[nH]1` [Compound I-13, 4-(4-(6-methyl-7H-pyrrolo[2,3-d]pyrimidinyl)amino)-N-(4-((4-methyl-1-piperazinyl)methyl)phenyl)-1H-3-pyrazolecarboxamide], the inhibition at 1 µM at Aurora A turned out to be 60.8%; on CDK2/A, 67%. Also, the IC50 at CDK3/cyclin E (setting [1]) amounted to 191 nM; at ERK7/MAPK15 (setting [2]), 8 nM; at JNK2 (setting [3]), 1650 nM; on CDK1/cyclin A (setting [4]) it was 158 nM; on CDK7/cyclin H (setting [5]), 583 nM; on JAK2 (setting [6]) it was 795 nM. For the same molecule, the IC50 was 305 nM at FGFR1 (setting [7]); 15 nM on CDK2/cyclin A (setting [8]); 39 nM at KDR/VEGFR2 (setting [9]); 10 nM at CDK2/Cyclin A1 (setting [10]); 23 nM on FLT1/VEGFR1 (setting [11]); 8 nM at CDK4/cyclin D1 (setting [12]). Besides, the IC50 at FGFR2 (setting [13]) came out at 234 nM; on JNK1 (setting [14]), 1550 nM; against FGFR3, 811 nM; at CDK5/p35 (setting [15]), 15 nM; on CDK1/cyclin B (setting [16]), 88 nM; at CDK1/cyclin E (setting [17]), 97 nM.
For `O=C(Nc1ccc(CN2CCOCC2)cc1)c1n[nH]cc1Nc1ncnc2sccc12` [Compound I-2, 4-(4-thieno[2,3-d]pyrimidinylamino)-N-(4-((4-morpholinyl)methyl)phenyl)-1H-3-pyrazolecarboxamide], the inhibition at 1 µM stood at 52.2% on Aurora A and 46.6% on CDK2/A.
For the molecule `CN1CCN(Cc2ccc(NC(=O)c3n[nH]cc3Nc3ncnc4[nH]ccc34)cc2)CC1` [Compound I-11, 4-(4-(7H-pyrrolo[2,3-d]pyrimidinyl)amino)-N-(4-((4-methyl-1-piperazinyl)methyl)phenyl)-1H-3-pyrazolecarboxamide], the inhibition at 1 µM at Aurora A amounted to 64.3%; at CDK2/A it was 67.9%. Also, the IC50 was 155 nM against CDK3/cyclin E; 7 nM against ERK7/MAPK15; 1320 nM against JNK2; 128 nM on CDK1/cyclin A; 471 nM on CDK7/cyclin H; 644 nM on JAK2. The IC50 against FGFR1 came out at 247 nM; on CDK2/cyclin A, 13 nM; at KDR/VEGFR2 it was 31 nM; on CDK2/Cyclin A1 it was 8 nM; against FLT1/VEGFR1, 19 nM; against CDK4/cyclin D1, 6 nM. Besides, the IC50 against FGFR2 is 189 nM; on JNK1 it was 1240 nM; against FGFR3 it was 657 nM; on CDK5/p35 it was 12 nM; against CDK1/cyclin B, 71 nM; against CDK1/cyclin E, 78 nM.
Turning to `CN1CCN(Cc2ccc(NC(=O)c3n[nH]cc3Nc3ncnc4occc34)cc2)CC1` [Compound I-21, 4-(4-furo[2,3-d]pyrimidinylamino)-N-(4-((4-methyl-1-piperazinyl)methyl)phenyl)-1H-3-pyrazolecarboxamide], the values for the inhibition at 1 µM on Aurora A and on CDK2/A were 60.8% and 66%, respectively. Moreover, the IC50 was 210 nM at CDK3/cyclin E (setting [1]); 8 nM on ERK7/MAPK15 (setting [2]); 1490 nM on JNK2 (setting [3]); 173 nM on CDK1/cyclin A (setting [4]); 611 nM at CDK7/cyclin H (setting [5]); 875 nM at JAK2 (setting [6]). In addition, the IC50 on FGFR1 (setting [7]) amounted to 335 nM; at CDK2/cyclin A (setting [8]), 17 nM; at KDR/VEGFR2 (setting [9]) it was 41 nM; at CDK2/Cyclin A1 (setting [10]), 11 nM; at FLT1/VEGFR1 (setting [11]), 24 nM; on CDK4/cyclin D1 (setting [12]) it was 7 nM. Moreover, the IC50 stood at 257 nM on FGFR2 (setting [13]); 1430 nM at JNK1 (setting [14]); 890 nM at FGFR3; 16 nM at CDK5/p35 (setting [15]); 96 nM on CDK1/cyclin B (setting [16]); 106 nM at CDK1/cyclin E (setting [17]).
